Data on two compounds can be found in patent US8975280B2, “Deoxynojirimycin and D-arabinitol analogs and methods of using” (The Chancellor, Masters and Scholars of The University of …, priority 2006, dated 2015).

One test addresses T1, α-glucosidase I (Rattus norvegicus, UniProt O88941).
T1 construct: Purified α-glucosidase I and II were purified from rat liver by known methods; from tissue; host or cells: rat liver
T1 sequence (O88941 1-834): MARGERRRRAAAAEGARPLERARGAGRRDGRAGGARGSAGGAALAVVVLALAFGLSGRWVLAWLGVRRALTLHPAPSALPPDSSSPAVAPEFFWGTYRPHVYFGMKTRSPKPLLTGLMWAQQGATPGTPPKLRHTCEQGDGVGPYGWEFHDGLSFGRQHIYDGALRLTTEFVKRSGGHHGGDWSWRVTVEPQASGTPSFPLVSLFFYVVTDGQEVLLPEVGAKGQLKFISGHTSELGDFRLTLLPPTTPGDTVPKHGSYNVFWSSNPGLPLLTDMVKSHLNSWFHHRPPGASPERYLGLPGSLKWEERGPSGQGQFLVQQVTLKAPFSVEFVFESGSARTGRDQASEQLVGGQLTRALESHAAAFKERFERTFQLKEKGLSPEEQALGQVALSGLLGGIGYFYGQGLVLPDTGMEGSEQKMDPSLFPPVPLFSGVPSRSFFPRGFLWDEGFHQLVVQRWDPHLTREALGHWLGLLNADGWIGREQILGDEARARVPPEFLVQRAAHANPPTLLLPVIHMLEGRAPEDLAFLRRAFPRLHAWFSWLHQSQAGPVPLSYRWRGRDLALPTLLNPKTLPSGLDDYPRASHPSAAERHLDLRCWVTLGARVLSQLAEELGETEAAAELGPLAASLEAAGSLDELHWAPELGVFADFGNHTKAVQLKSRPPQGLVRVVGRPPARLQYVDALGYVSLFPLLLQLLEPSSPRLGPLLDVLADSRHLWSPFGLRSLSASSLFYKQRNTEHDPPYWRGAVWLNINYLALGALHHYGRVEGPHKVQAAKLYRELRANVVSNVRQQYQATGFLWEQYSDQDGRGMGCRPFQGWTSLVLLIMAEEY
The test can be described thus: In vitro inhibition of purified α-glucosidase I, 2-AA-labeled FOS substrates, HPLC. The test is classed as biochemical. The method, then:
(§1) All chromatography was performed at 30° C. The first solvent, solvent A, was acetonitrile and the second solvent, solvent B, was Milli-Q water. […] Samples (<50 μl) were injected in Milli-Q water/acetonitrile (3/7, v/v). All chromatography was controlled, including data collection and processing, using Waters Empower software. Glucose units were determined, following comparison with a 2-AA-labeled glucose oligomer ladder (derived from a partial hydrolysate of dextran) external standard using Peak Time software (developed in-house).
Purified α-glucosidase I and II were purified from rat liver by known methods. […] 2-AA-labeled FOS were isolated and purified as substrates for either α-glucosidase I or II. Fluorescently-labeled substrates Glc1Man5GlcNAc1 (G1M5N), Glc2Man5GlcNAc1 (G2M5N), Glc3Man5GlcNAc1 (G3M5N) and Glc3Man9GlcNAc, (G3M9N2) were added to separate 1.5 ml centrifuge tubes with varying concentrations of imino sugar and dried under vacuum. […] Similarly, α-glucosidase II was incubated for 2 hours with G2M5N and 20 minutes with G1M5N. […] The reactions were stopped by the addition of 30 μl acetonitrile.

The next test has as its target T2, α-glucosidase II (Rattus norvegicus, UniProt A0A8I6GFL3).
T2 construct: Purified α-glucosidase I and II were purified from rat liver by known methods; from tissue; host or cells: rat liver
The test can be described thus: In vitro inhibition of purified α-glucosidase II, (a) and (b) activities, 2-AA-labeled FOS substrates, HPLC. The test is classed as biochemical. On the procedure:
as §1
Purified α-glucosidase I and II were purified from rat liver by known methods. […] 2-AA-labeled FOS were isolated and purified as substrates for either α-glucosidase I or II. […] […] […] […] The reactions were stopped by the addition of 30 μl acetonitrile.

Where [1] appears, read: nonamannose substrate Glc3Man9GlcNAc1, read-out: α-Glucosidase I Glc3Man9GlcNAc1 IC50.
The mark [2] stands for this setting: pentamannose substrate Glc3Man5GlcNAc1, read-out: α-Glucosidase I Glc3Man5GlcNAc1 IC50.
Setting [3] is: pentamannose substrate Glc1Man5GlcNAc1, read-out: α-Glucosidase II (b) Glc1Man5GlcNAc1 IC50.
The mark [4] stands for this setting: pentamannose substrate Glc2Man5GlcNAc1, read-out: α-Glucosidase II (a) Glc2Man5GlcNAc1 IC50.

Where two headings read alike, the source gives them in different places.

T2 sequence (A0A8I6ADW9 1-525 partner): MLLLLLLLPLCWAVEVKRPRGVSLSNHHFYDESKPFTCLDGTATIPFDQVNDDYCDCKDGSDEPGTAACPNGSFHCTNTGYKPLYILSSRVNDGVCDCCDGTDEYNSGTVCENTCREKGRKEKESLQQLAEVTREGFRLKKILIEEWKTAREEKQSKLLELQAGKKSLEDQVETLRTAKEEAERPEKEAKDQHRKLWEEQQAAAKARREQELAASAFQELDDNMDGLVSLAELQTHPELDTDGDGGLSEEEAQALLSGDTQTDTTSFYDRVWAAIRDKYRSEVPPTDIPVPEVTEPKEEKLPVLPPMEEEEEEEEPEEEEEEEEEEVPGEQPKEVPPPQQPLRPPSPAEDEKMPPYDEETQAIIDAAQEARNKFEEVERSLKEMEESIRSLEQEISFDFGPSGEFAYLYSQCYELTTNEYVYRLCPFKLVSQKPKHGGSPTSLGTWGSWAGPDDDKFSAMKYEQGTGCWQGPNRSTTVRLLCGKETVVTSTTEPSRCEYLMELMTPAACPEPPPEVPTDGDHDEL

The IC50 is the concentration that inhibits the measured activity by half. On to `CCCCN1C[C@H](O)[C@@H](O)[C@H](O)[C@H]1CO` [NB-DNJ, N-butyl-DNJ, reference compound], for which the IC50 at α-glucosidase I (setting [1]) was determined as 590 ± 80 nM; on α-glucosidase I (setting [2]), 680 ± 150 nM; on α-glucosidase II (setting [3]), 53000 ± 16600 nM; at α-glucosidase II (setting [4]), 10800 ± 1100 nM.
Regarding `O=[N+]([O-])c1ccc(NCCCCCCN2C[C@H](O)[C@@H](O)[C@H](O)[C@H]2CO)c([N+](=O)[O-])c1` [NDP-DNJ, N—(N′-{2,4-dinitrophenyl)-6-aminohexyl)-deoxynojirimycin], the IC50 amounted to 45 ± 3 nM on α-glucosidase I (heptamannose substrate Glc3Man7GlcNAc1, read-out: α-Glucosidase I Glc3Man7GlcNAc1 IC50); 54 ± 20 nM at α-glucosidase I (setting [1]); 108 ± 20 nM at α-glucosidase I (setting [2]); 10200 ± 20 nM on α-glucosidase II (heptamannose substrate Glc1Man7GlcNAc1, read-out: α-Glucosidase II (b) Glc1Man7GlcNAc1 IC50); 18100 ± 1600 nM at α-glucosidase II (heptamannose substrate Glc2Man7GlcNAc1, read-out: α-Glucosidase II (a) Glc2Man7GlcNAc1 IC50); 1900 ± 400 nM on α-glucosidase II (setting [3]). The half-maximal inhibitory concentration (IC50) on α-glucosidase II (setting [4]) amounted to 6900 ± 3400 nM.
